The source of these data is the NIST ThermoML archive (doi:10.1021/je200215d).

± gives the expanded uncertainty stated by the source.

The conditions of data set [1]: for surface tension liquid-gas / mass density: 298.15 K; for surface tension liquid-gas: Maximal bubble pressure; for mass density: 101.33 kPa, Vibrating tube method; for mass density / vapor or sublimation pressure: Liquid; for vapor or sublimation pressure: Ebulliometric method (Recirculating still).
Data set [2] is described as follows: refractive index (Na D-line) (dimensionless). As to conditions: 298.15 K; 101.33 kPa; Liquid; Standard Abbe refractometry.
A short description of data set [3]: xn = mol fraction of the nth substance listed. The note with it: 303.15 K, Maximal bubble pressure.

What is called surface tension liquid-gas is the force per length acting along the surface. One may read the mass density as mass per unit of volume. The vapor or sublimation pressure is the pressure of vapour in equilibrium with the condensed phase. One may read the refractive index as a measure of how strongly the sample bends light. On to `CCC(C)(C)OC` [2-methoxy-2-methylbutane], for which, in data set [1], the surface tension liquid-gas is listed as 22 ± 0.23 mN/m and the mass density came to 765.8 ± 0.18 kg/m3. Also, the “vapor or sublimation pressure” value in data set [1] (359.52 K) turned out to be 101.33 ± 0.21 kPa. Also, in data set [2], the refractive index stood at 1.38712 ± 0.00072.

As to `CCC(C)(C)OC` [2-methoxy-2-methylbutane] + CCO, the surface tension liquid-gas was 22 ± 0.26 mN/m in data set [3] (x2 = 0); 21.97 ± 0.26 mN/m in data set [3] (x2 = 0.04); 21.95 ± 0.26 mN/m in data set [3] (x2 = 0.071); 21.93 ± 0.26 mN/m in data set [3] (x2 = 0.137); 21.9 ± 0.26 mN/m in data set [3] (x2 = 0.198); 21.88 ± 0.26 mN/m in data set [3] (x2 = 0.252). Also, the surface tension liquid-gas was 21.86 ± 0.26 mN/m in data set [3] (x2 = 0.303); 21.84 ± 0.26 mN/m in data set [3] (x2 = 0.41); 21.81 ± 0.26 mN/m in data set [3] (x2 = 0.508); 21.78 ± 0.26 mN/m in data set [3] (x2 = 0.611); 21.76 ± 0.26 mN/m in data set [3] (x2 = 0.708); 21.73 ± 0.26 mN/m in data set [3] (x2 = 0.803). In addition, in data set [3] (x2 = 0.898), the surface tension liquid-gas was determined as 21.71 ± 0.26 mN/m.

On to `CCO` [ethanol], for which, in data set [1], the surface tension liquid-gas is 21.7 ± 0.23 mN/m and the mass density came out at 785.05 ± 0.16 kg/m3. In addition, the “vapor or sublimation pressure” value in data set [1] (351.45 K) is listed as 101.33 ± 0.21 kPa. Also, the refractive index in data set [2] amounted to 1.36068 ± 0.00072.

As for `CCO` [ethanol] + CCC(C)(C)OC, the surface tension liquid-gas in data set [3] (x1 = 1) stood at 21.7 ± 0.26 mN/m.
